Measured values: PubChem BioAssay AID1996
Values after ≈ are worked out from the molar mass of the structure shown.

conditions: buffer; pH 7.4; 200.0 µM

Row | SMILES | solubility kinetic [µg/mL]
1 | NC(=O)NNC(=S)Nc1cccc2ccccc12 | > 39
2 | COC(=O)c1ccccc1NC(=O)CSc1ncccn1 | > 45.5
3 | Cc1ccc(Cl)cc1NC(=S)N1CCCCCC1 | 37.8 (≈ 134 µM)
4 | Cl.O[C@@H](c1cc(C(F)(F)F)nc2c(C(F)(F)F)cccc12)[C@H]1CCCCN1 | > 62.2
5 | Cn1c(=O)c2c(nc(NNC(=O)C(F)(F)F)n2C)n(C)c1=O | > 48
6 | O=C(CCCOc1ccc(Cl)cc1Cl)Nc1ccccn1 | 0.6 (≈ 1.85 µM)
7 | COC(OC)c1ccnc(SCc2ccccc2Cl)n1 | 17.6 (≈ 56.6 µM)
8 | CCC(C)NC(=O)C1c2ccccc2Oc2ccccc21 (stereo not given) | 1.9 (≈ 6.75 µM)
9 | O=[N+]([O-])c1ccc(N2CCOCC2)cc1O | > 33.6
10 | O=Cc1cccc(Oc2ncccn2)c1 | > 30
11 | Cn1c(CN2CCN(CCO)CC2)c(C#N)c2ccccc21 | > 44.8
12 | COc1cc(C(NC(C)=O)NC(C)=O)ccc1OCc1ccccc1 | > 51.4
13 | Cc1cccc(C(=O)N2CCCC(c3nc(-c4ccc(F)cc4)no3)C2)c1 (stereo not given) | 12.4 (≈ 33.9 µM)
14 | Cc1nc2cc(Cl)ccc2c(=O)n1Cc1ccncc1 | > 42.9
15 | Cc1ccc(S(=O)(=O)Nc2cc(C)on2)cc1 | 28.1 (≈ 111 µM)
16 | Cc1ccc(C(=O)OCC(=O)N2C(C)CCCC2C)s1 (stereo not given) | 28.2 (≈ 95.5 µM)
17 | O=C(O)C1C2c3ccccc3C(c3ccccc32)C1C(=O)Nc1ccccc1 (stereo not given) | > 55.4
18 | O=C(Nc1ccc(CN2CCCCC2)cc1)c1cccc(F)c1 | 44.7 (≈ 143 µM)
19 | COc1ccc(Nc2nc(N)nc(CN3CCC(C)CC3)n2)cc1 | > 49.3
20 | CCOc1ccc(C(=O)N2CCn3c2nc2ccccc23)cc1 | 6.4 (≈ 20.8 µM)

Row | SMILES | solubility kinetic [µg/mL]
21 | COc1ccccc1OCC(=O)Nc1ccc(NC(=O)COc2ccccc2OC)cc1 | 1.4 (≈ 3.21 µM)
22 | CCN(CC(=O)Nc1ccccc1OC)Cc1csc(CC(=O)Nc2ccc(C)cc2)n1 | 19 (≈ 42 µM)
23 | CC(NC(=O)C12CC3CC(CC(C3)C1)C2)c1ccc(F)cc1 (stereo not given) | 1.4 (≈ 4.64 µM)
24 | Cc1noc(C)c1COc1ncnc2ccccc12 | > 38.3
25 | COC(=O)c1c(NC(=O)C(Cl)Cl)sc2c1C(C(=O)OC)CC2 (stereo not given) | 8.6 (≈ 23.5 µM)
26 | CC(=O)Nc1ccc(NC(=O)c2sc(-c3ccccc3)nc2C)cc1 | 0.9 (≈ 2.56 µM)
27 | COc1cccc(-c2cc(C(=O)NC3CCCC3)c3ccccc3n2)c1 | 1.3 (≈ 3.75 µM)
28 | CC1C(=O)N2CCCc3cc(NC(=O)C4CC4)cc1c32 (stereo not given) | 36.3 (≈ 134 µM)
29 | O=C(Cc1ccc(O)cc1)NCCNC(=S)NCc1ccccc1 | 50.3 (≈ 146 µM)
30 | O=C(CCNS(=O)(=O)c1ccc(F)c(Cl)c1)NCc1ccccc1F | 27.2 (≈ 70 µM)
31 | CC(NC(=O)c1cc(-c2ccccc2)nc2ccccc12)C1CCCO1 (stereo not given) | > 52
32 | COCCOC(=O)C1=C(C)NC(=O)NC1c1cccc(F)c1 (stereo not given) | > 46.2
33 | COc1ccc(/C=C/C(=O)OCC(=O)NCCCc2ccccc2)cc1OC | 20 (≈ 52.2 µM)
34 | Cc1cc(NC(=O)c2ccc(-c3ccccc3F)o2)no1 | 0.6 (≈ 2.1 µM)
35 | Cl.OC(CNCc1cccc(Br)c1)c1ccccc1 (stereo not given) | 48.1
36 | CCOc1ccc(S(=O)(=O)N2CCCCC2)c(C)c1C | 9.7 (≈ 32.6 µM)
37 | Cc1ccc2cc(CCl)c(Cl)nc2c1 | 3.7 (≈ 16.4 µM)
38 | Cn1c(=O)c(=O)n(C)c2cc([N+](=O)[O-])c([N+](=O)[O-])cc21 | > 42
39 | O=C(c1ccccc1O)N1CCOCC1 | 30.5 (≈ 147 µM)
40 | CCC(=O)c1ccc2c(c1)N(CCCN(C)C)c1ccccc1S2.Cl | > 56.5

Row | SMILES | solubility kinetic [µg/mL]
41 | Cn1c(Cl)cnc1C(O)(c1ccccc1)c1ccccc1 | 10.2 (≈ 34.1 µM)
42 | Cc1[nH]c(=O)nc(SCc2ccc(Cl)c(Cl)c2)c1C#N | 3.4 (≈ 10.4 µM)
43 | Clc1nc(NCc2ccco2)nc(N2CCCCC2)n1 | 0.3 (≈ 1.02 µM)
44 | NC1C2CN3CCN(C2)CC1(c1ccccc1)C3 (stereo not given) | > 36.5
45 | COc1ccc(C(=O)Nc2ccc(C(=O)c3ccccc3)cc2)cc1 | < 0.7
46 | CCOc1ccc(N2C(=O)C(Cl)=C(N3CCOCC3)C2=O)cc1 | > 50.5
47 | Cc1ccc(NC(=O)c2cccnc2C(=O)O)nc1 | > 38.6
48 | Cn1ccsc1=NC(=O)c1cccc(C#N)c1 | > 36.5
49 | Cc1c(C(=O)N2CCCC2)oc2ccc(Br)cc12 | 25.1 (≈ 81.4 µM)
50 | O=S(=O)(c1ccccc1)N1CCN(CCc2ccccc2)CC1 | 1.7 (≈ 5.14 µM)
51 | CCN(CC)S(=O)(=O)c1cccc(NC2=NCC(C)S2)c1 (stereo not given) | > 49.1
52 | O=C(Nc1ccc(F)c(Cl)c1)C1CCCC1 | 13.5 (≈ 55.9 µM)
53 | O=C(O)c1ccc(-n2c(/C=C/c3ccccc3)nc3ccccc3c2=O)cc1 | > 55.3
54 | Cc1ccsc1C(=O)OCC(=O)N1CC(C)CC(C)C1 (stereo not given) | > 44.3
55 | CCc1noc(C)c1C(=O)Nc1cccc2ncccc12 | > 42.2
56 | Cc1cc(C)c(C#N)c(N)n1 | > 22.1
57 | COC(=O)C1=C(C)NC(C)=C(C(=O)OC)C1c1ccco1 | 21.9 (≈ 75.2 µM)
58 | COc1ccc(NC(=O)c2ccc[n+]([O-])c2)cc1 | > 36.6
59 | COC(=O)c1sc(SC)nc1N | 30.4 (≈ 149 µM)
60 | COc1cccc(C(=O)NCC(=O)OC(C)C(=O)NC23CC4CC(CC(C4)C2)C3)c1 (stereo not given) | > 62.2
